In brackets after ≈: the same amount, converted by molar mass.
Legend:
[1] = tested on: Staphylococcus aureus; assay: Antibacterial activity against methicillin-resistant Staphylococcus aureus 502025 clinical isolate after 20 to 24 hrs by two-fold microdilution method; format: functional
[2] = tested on: Enterococcus faecalis; assay: Antibacterial activity against Enterococcus faecalis ATCC 29212 after 20 to 24 hrs by two-fold microdilution method; format: functional
[3] = tested on: Staphylococcus aureus; assay: Antibacterial activity against methicillin-resistant Staphylococcus aureus 523005 clinical isolate after 20 to 24 hrs by two-fold microdilution method; format: functional
[4] = Solubility of the compound in water at 25 degC measured after shaking for 4 hrs by UV method; format: physicochemical; conditions: water
[5] = tested on: Staphylococcus aureus; assay: Antibacterial activity against methicillin-resistant Staphylococcus aureus 504008 clinical isolate after 20 to 24 hrs by two-fold microdilution method; format: functional
[6] = tested on: Staphylococcus aureus; assay: Antibacterial activity against methicillin-resistant Staphylococcus aureus 10281-2 clinical isolate after 20 to 24 hrs by two-fold microdilution method; format: functional
[7] = tested on: Staphylococcus aureus; assay: Antibacterial activity against methicillin-resistant Staphylococcus aureus 921026 clinical isolate after 20 to 24 hrs by two-fold microdilution method; format: functional
[8] = tested on: Staphylococcus aureus; assay: Antibacterial activity against methicillin-resistant Staphylococcus aureus 19950 clinical isolate after 20 to 24 hrs by two-fold microdilution method; format: functional
[9] = tested on: Staphylococcus aureus; assay: Antibacterial activity against methicillin-resistant Staphylococcus aureus 3250299 clinical isolate after 20 to 24 hrs by two-fold microdilution method; format: functional
[10] = tested on: Streptococcus pneumoniae; assay: Antibacterial activity against Streptococcus pneumoniae ATCC 6305 after 20 to 24 hrs by two-fold microdilution method; format: functional
[11] = tested on: Staphylococcus aureus; assay: Antibacterial activity against methicillin-resistant Staphylococcus aureus 112430 clinical isolate after 20 to 24 hrs by two-fold microdilution method; format: functional
[12] = tested on: Staphylococcus aureus; assay: Antibacterial activity against methicillin-resistant Staphylococcus aureus 109244 clinical isolate after 20 to 24 hrs by two-fold microdilution method; format: functional
[13] = tested on: Staphylococcus aureus; assay: Antibacterial activity against methicillin-resistant Staphylococcus aureus 1106003 clinical isolate after 20 to 24 hrs by two-fold microdilution method; format: functional
[14] = tested on: Staphylococcus aureus; assay: Antibacterial activity against methicillin-resistant Staphylococcus aureus 112106 clinical isolate after 20 to 24 hrs by two-fold microdilution method; format: functional
[15] = tested on: Staphylococcus aureus; assay: Antibacterial activity against methicillin-resistant Staphylococcus aureus 131215 clinical isolate after 20 to 24 hrs by two-fold microdilution method; format: functional
[16] = tested on: Staphylococcus aureus; assay: Antibacterial activity against methicillin-resistant Staphylococcus aureus 822030 clinical isolate after 20 to 24 hrs by two-fold microdilution method; format: functional
[17] = tested on: Staphylococcus aureus; assay: Antibacterial activity against methicillin-resistant Staphylococcus aureus 121969 clinical isolate after 20 to 24 hrs by two-fold microdilution method; format: functional
[18] = tested on: Staphylococcus aureus; assay: Antibacterial activity against methicillin-resistant Staphylococcus aureus 1012029 clinical isolate after 20 to 24 hrs by two-fold microdilution method; format: functional
[19] = tested on: Staphylococcus aureus; assay: Antibacterial activity against methicillin-resistant Staphylococcus aureus 221022 clinical isolate after 20 to 24 hrs by two-fold microdilution method; format: functional
[20] = tested on: Staphylococcus aureus; assay: Antibacterial activity against methicillin-resistant Staphylococcus aureus 110414 clinical isolate after 20 to 24 hrs by two-fold microdilution method; format: functional
[21] = tested on: Staphylococcus aureus; assay: Antibacterial activity against methicillin-resistant Staphylococcus aureus 1101016 clinical isolate after 20 to 24 hrs by two-fold microdilution method; format: functional
[22] = tested on: Streptococcus pyogenes; assay: Antibacterial activity against Streptococcus pyogenes ATCC 19615 after 20 to 24 hrs by two-fold microdilution method; format: functional
[23] = tested on: Staphylococcus aureus; assay: Antibacterial activity against methicillin-resistant Staphylococcus aureus 519238 clinical isolate after 20 to 24 hrs by two-fold microdilution method; format: functional
[24] = tested on: Staphylococcus aureus; assay: Antibacterial activity against methicillin-resistant Staphylococcus aureus 20106-2 clinical isolate after 20 to 24 hrs by two-fold microdilution method; format: functional
[25] = tested on: Staphylococcus aureus; assay: Antibacterial activity against methicillin-resistant Staphylococcus aureus 1024010 clinical isolate after 20 to 24 hrs by two-fold microdilution method; format: functional
[26] = tested on: Staphylococcus aureus; assay: Antibacterial activity against methicillin-resistant Staphylococcus aureus clinical isolate after 20 to 24 hrs by two-fold microdilution method; format: functional
[27] = tested on: Staphylococcus aureus; assay: Antibacterial activity against methicillin-resistant Staphylococcus aureus 110432 clinical isolate after 20 to 24 hrs by two-fold microdilution method; format: functional
[28] = tested on: Staphylococcus aureus; assay: Antibacterial activity against methicillin-resistant Staphylococcus aureus 1113041 clinical isolate after 20 to 24 hrs by two-fold microdilution method; format: functional
[29] = tested on: Staphylococcus aureus; assay: Antibacterial activity against methicillin-resistant Staphylococcus aureus 110910-2 clinical isolate after 20 to 24 hrs by two-fold microdilution method; format: functional
[30] = tested on: Staphylococcus aureus; assay: Antibacterial activity against methicillin-resistant Staphylococcus aureus 110325 clinical isolate after 20 to 24 hrs by two-fold microdilution method; format: functional
[31] = tested on: Staphylococcus aureus; assay: Antibacterial activity against methicillin-resistant Staphylococcus aureus 109016 clinical isolate after 20 to 24 hrs by two-fold microdilution method; format: functional
[32] = tested on: Staphylococcus aureus; assay: Antibacterial activity against methicillin-resistant Staphylococcus aureus 121026 clinical isolate after 20 to 24 hrs by two-fold microdilution method; format: functional
[33] = tested on: Staphylococcus aureus; assay: Antibacterial activity against methicillin-resistant Staphylococcus aureus 414244 clinical isolate after 20 to 24 hrs by two-fold microdilution method; format: functional
[34] = tested on: Staphylococcus aureus; assay: Antibacterial activity against methicillin-resistant Staphylococcus aureus 111625 clinical isolate after 20 to 24 hrs by two-fold microdilution method; format: functional
[35] = tested on: Staphylococcus aureus; assay: Antibacterial activity against methicillin-resistant Staphylococcus aureus 20339 clinical isolate after 20 to 24 hrs by two-fold microdilution method; format: functional
[36] = tested on: Staphylococcus aureus; assay: Antibacterial activity against methicillin-resistant Staphylococcus aureus 531220 clinical isolate after 20 to 24 hrs by two-fold microdilution method; format: functional
[37] = tested on: Staphylococcus aureus; assay: Antibacterial activity against methicillin-resistant Staphylococcus aureus 214026 clinical isolate after 20 to 24 hrs by two-fold microdilution method; format: functional
[38] = tested on: Staphylococcus aureus; assay: Antibacterial activity against methicillin-resistant Staphylococcus aureus 102849 clinical isolate after 20 to 24 hrs by two-fold microdilution method; format: functional
[39] = tested on: Staphylococcus aureus; assay: Antibacterial activity against methicillin-resistant Staphylococcus aureus 831024 clinical isolate after 20 to 24 hrs by two-fold microdilution method; format: functional
[40] = tested on: Staphylococcus aureus; assay: Antibacterial activity against methicillin-resistant Staphylococcus aureus 530231 clinical isolate after 20 to 24 hrs by two-fold microdilution method; format: functional
[41] = tested on: Staphylococcus aureus; assay: Antibacterial activity against methicillin-resistant Staphylococcus aureus 1215028 clinical isolate after 20 to 24 hrs by two-fold microdilution method; format: functional
[42] = tested on: Staphylococcus aureus; assay: Antibacterial activity against methicillin-resistant Staphylococcus aureus 216054 clinical isolate after 20 to 24 hrs by two-fold microdilution method; format: functional
[43] = tested on: Staphylococcus aureus; assay: Antibacterial activity against methicillin-resistant Staphylococcus aureus 11703 clinical isolate after 20 to 24 hrs by two-fold microdilution method; format: functional
[44] = tested on: Staphylococcus aureus; assay: Antibacterial activity against methicillin-resistant Staphylococcus aureus 215073 clinical isolate after 20 to 24 hrs by two-fold microdilution method; format: functional
[45] = tested on: Staphylococcus aureus; assay: Antibacterial activity against methicillin-resistant Staphylococcus aureus 110328-1 clinical isolate after 20 to 24 hrs by two-fold microdilution method; format: functional
[46] = tested on: Staphylococcus aureus; assay: Antibacterial activity against methicillin-resistant Staphylococcus aureus 919205 clinical isolate after 20 to 24 hrs by two-fold microdilution method; format: functional
[47] = tested on: Staphylococcus aureus; assay: Antibacterial activity against methicillin-resistant Staphylococcus aureus 30116-1 clinical isolate after 20 to 24 hrs by two-fold microdilution method; format: functional

CN1CCN(CCCCCCOC(=O)c2c3c(n4cc(Br)ccc24)C(=O)c2ncccc2C3=O)CC1
MIC [1]: 0.25 µg/mL (≈ 0.452 µM) | MIC [2]: 0.25 µg/mL (≈ 0.452 µM) | MIC [3]: 0.25 µg/mL (≈ 0.452 µM) | solubility thermodynamic at 4 h [4]: 2060 µg/mL (≈ 3720 µM) | MIC [5]: 0.125 µg/mL (≈ 0.226 µM) | MIC [6]: ≤ 0.0078 µg/mL | MIC [7]: ≤ 0.0078 µg/mL | MIC [8]: 0.25 µg/mL (≈ 0.452 µM) | MIC [9]: 0.063 µg/mL (≈ 0.114 µM) | MIC [10]: 0.5 µg/mL (≈ 0.903 µM) | MIC [11]: 0.125 µg/mL (≈ 0.226 µM) | MIC [12]: 0.125 µg/mL (≈ 0.226 µM) | MIC [13]: > 16 µg/mL | MIC [14]: 0.25 µg/mL (≈ 0.452 µM) | MIC [15]: 0.063 µg/mL (≈ 0.114 µM) | MIC [16]: 0.25 µg/mL (≈ 0.452 µM) | MIC [17]: 0.125 µg/mL (≈ 0.226 µM) | MIC [18]: 0.016 µg/mL (≈ 0.0289 µM) | MIC [19]: 0.125 µg/mL (≈ 0.226 µM) | MIC [20]: 0.125 µg/mL (≈ 0.226 µM) | MIC [21]: 0.25 µg/mL (≈ 0.452 µM) | MIC [22]: 2 µg/mL (≈ 3.61 µM) | MIC [23]: 0.25 µg/mL (≈ 0.452 µM) | MIC [24]: 0.25 µg/mL (≈ 0.452 µM) | MIC [25]: 0.125 µg/mL (≈ 0.226 µM) | MIC50 [26]: 0.125 µg/mL (≈ 0.226 µM) | MIC90 [26]: 0.5 µg/mL (≈ 0.903 µM) | MIC [27]: 0.125 µg/mL (≈ 0.226 µM) | MIC [28]: 0.125 µg/mL (≈ 0.226 µM) | MIC [29]: 0.125 µg/mL (≈ 0.226 µM) | MIC [30]: ≤ 0.0078 µg/mL | MIC [31]: 0.031 µg/mL (≈ 0.056 µM) | MIC [32]: 0.031 µg/mL (≈ 0.056 µM) | MIC [33]: 0.063 µg/mL (≈ 0.114 µM) | MIC [34]: 0.125 µg/mL (≈ 0.226 µM) | MIC [35]: 0.5 µg/mL (≈ 0.903 µM) | MIC [36]: ≤ 0.0078 µg/mL | MIC [37]: 0.031 µg/mL (≈ 0.056 µM) | MIC [38]: 0.125 µg/mL (≈ 0.226 µM) | MIC [39]: ≤ 0.0078 µg/mL | MIC [40]: 0.5 µg/mL (≈ 0.903 µM) | MIC [41]: 0.063 µg/mL (≈ 0.114 µM) | MIC [42]: 0.125 µg/mL (≈ 0.226 µM) | MIC [43]: 0.25 µg/mL (≈ 0.452 µM) | MIC [44]: 0.063 µg/mL (≈ 0.114 µM) | MIC [45]: ≤ 0.0078 µg/mL | MIC [46]: 0.125 µg/mL (≈ 0.226 µM) | MIC [47]: 0.125 µg/mL (≈ 0.226 µM)
